Reference: US20120157395A1, “ANTI-INFLAMMATORY AGENT FOR ORAL APPLICATION, AND ANTI-INFLAMMATORY PEPTIDE FOR ORAL APPLICATION” (priority 2009, published 2012)
Residues, ends and D or L forms follow the SMILES beside them.

Assay: Identification of absorbed peptides in plasma (PDA-HPLC, LC-MS/MS)
Type: in vivo
Details: pigs fed Peptide Composition 1 (Example 1), blood collected during dissection; 3 peptide peaks present
Experimental: First, between 3 and 5 day-old 18 pigs were divided into 3 groups and they were bred for 3 days. Then the groups were designated as test groups (Example 1 and Comparative Example 1) and a control group (Comparative Example 2) and 1.25 g of dextran sulfate per kg of body weight was given as drinking water for 5 days (DSS treatment). Then, 250 mg of Peptide Composition 1 per kg of body weight was fed for 5 days in Example 1, 250 mg of Peptide Composition 2 per kg of body weight was fed for 5 days in Comparative Example 1, and alanine corresponding to the nitrogen content of the peptide was fed in Comparative Example 2. After that, the intestinal tract cells were collected during dissection and cytokines were measured. Comparative Example 2 corresponds to the control. (Dextran sulfate is a substance which induces bowel inflammation. International J. of Colorectal Disease, 15, 144-160 (2000))
Blood was collected during dissection and plasma was isolated, and then the structural analysis of a peak obtained by PDA-HPLC was carried out by LC-MS/MS to identify an amino acid sequence of the peptides.

Compound: CC(C)C[C@H](NC(=O)[C@@H](N)Cc1ccccc1)C(=O)N[C@H](C(=O)O)C(C)C [FLV, Phe-Leu-Val] (H-Phe-Leu-Val-OH; N-terminus and C-terminus assumed)
- peptide peak present in plasma: largest peak
